Literature values as cited in patent US20110300245A1, “Topical, palatable, anti-inflammatory and analgesic for specific application to intraoral, gingival and extraoral areas correlated with, and related to, the trigeminal nerve and its nerve branches and plexus. To mitigate, attenuate or prevent migraine-type headache, cluster-type headache, …” (priority 2010, published 2011).
Like-named read-outs stand apart in the source and are kept apart here.

What was measured:
[1] = not given; remark: listed apart in the source
[2] = rheumatoid arthritis patients
[3] = intravesical, 213 patients
[4] = for patients with symptoms controlled within 2 weeks: added orally to the sulfasalazine/prednisolone regimen, allopurinol 50 mg or DMSO 500 mg four times a day, p<0.01
[5] = not given; remark: listed apart in the source
[6] = in vivo
[7] = tested on: peripheral nerve C fibers; conditions: laboratory studies
[8] = not given; remark: listed apart in the source
[9] = not given; remark: listed apart in the source
cell proliferation = conditions: in vitro
[10] = given with sulfasalazine 2 gm daily, p<0.05

SMILES: C[S+](C)[O-] [DMSO, dimethyl sulfoxide]
- patients showing improvement (acute patients): 80%
- patients showing improvement (chronic patients): 60%
- relief of pain in rheumatoid arthritis ([1]; 27 patients with rheumatoid arthritis): all but four had some degree of relief of pain
- pain relief ([1]; 103 patients, topical application): pain relief of varying degrees in most patients
- time to pain relief after application ([1]; DMSO 1.0 ml, five patients with acute supraspinatus tendon pain associated with calcification): ≤ 10 min
- symptomatic relief ([1]; all six patients with acute calcified supraspinatus bursitis): Spectacular symptomatic relief
- recovery with normal use of the shoulder ([1]; continued applications every four hours over the following 24 hour period): complete recovery
- effects on joint pain, range of joint motion and grip strength [2]: analgesic and anti-inflammatory effects
- systemic or local toxicity [3]: no systemic or local toxicity
- symptomatic relief ([3]; majority of patients): Significant symptomatic relief
- patients with symptoms controlled within 2 weeks [4]: 84%
- patients relapsed during 12 months of prophylactic treatment [4, 10]: 5%
- number of patients with normal ICP ([5]; after 6 days of treatment, ten patients): 7
- ICP after 24 h ([5]; intravenous every 6 h, all ten patients, ICP 40-127 mm Hg): reduction of ICP
- neurological outcome ([5]; severe closed-head injury patients, intravenous): improves neurological outcome
- edema in animals [6]: reduction of edema
- nerve conduction [7]: blocking peripheral nerve C fibers

SMILES: CC(C(=O)O)c1cccc(C(=O)c2ccccc2)c1 (stereo not shown) [Ketoprofen]
- side effects ([8]; 30-day treatment phase): minimal
- average monthly headache burden score (intensity 0-10 x duration in hours) ([8]; 30-day treatment phase, gel once daily, 20 patients, 30-day baseline 454.8, p<0.001): 86.5
- analgesic and headache medication intake ([8]; treatment phase versus baseline): significantly reduced

SMILES: Oc1ncnc2[nH]ncc12 [allopurinol]
- patients with symptoms controlled within 2 weeks [4]: 84%
- patients relapsed during 12 months of prophylactic treatment [4, 10]: 5%

SMILES: O=C(O)c1cc(/N=N/c2ccc(S(=O)(=O)Nc3ccccn3)cc2)ccc1O [sulfasoizine, sulfasalazine]
- patients relapsed during 12 months of prophylactic treatment ([4]; sulfasalazine 2 gm daily alone): 25%

SMILES: CNS(=O)(=O)Cc1ccc2[nH]cc(CCN(C)C)c2c1 [sumatriptan]
- mean headache relief (0-10 scale) ([9]; 50 mg oral, at 1, 2, 4, and 24 hours after initiation of treatment): Significant mean headache relief
- nausea relief ([9]; 50 mg oral, same post treatment time intervals (1, 2, 4, 24 hours)): Significant nausea relief
- headache and nausea recurrence ([9]; at 24 hours): some headache and nausea recurrence

SMILES: O=C(O)C[C@H](O)C(=O)OC[C@H]1OC(O)[C@H](O)[C@@H](O)[C@@H]1O[C@H]1O[C@H](CO)[C@@H](O)[C@H](O)[C@H]1O (stereo partly drawn) [veracylglucan B, alpha-D-Glcp-(1-->4)-6-O-(1-L-maloyl)-alpha,-beta,-D-Glcp]
- anti-inflammatory activity and effect on cell proliferation (cell proliferation): potent anti-inflammatory and anti-proliferative effects

SMILES: O=C(O)C[C@H](O)C(=O)OC[C@H]1O[C@H](O[C@H]2[C@H](O)[C@@H](O)[C@@H](O[C@H]3[C@H](O)[C@@H](O)[C@@H](O[C@H]4[C@H](O)[C@@H](O)[C@@H](O[C@H]5[C@H](O)[C@@H](O)C(O)O[C@@H]5COC(=O)[C@@H](O)CC(=O)O)O[C@@H]4COC(=O)[C@@H](O)CC(=O)O)O[C@@H]3COC(=O)[C@@H](O)CC(=O)O)O[C@@H]2COC(=O)[C@@H](O)CC(=O)O)[C@H](O)[C@@H](O)[C@@H]1O[C@H]1O[C@H](CO)[C@@H](O)[C@H](O)[C@H]1O (stereo partly drawn) [veracylglucan C, alpha-D-Glcp-(1-->4)-tetra-[6-O-(1-L-maloyl)-alpha-D-Glcp-(1-->4)]-6-O-(1-L-maloyl)-alpha,-beta-D-Glcp]
- anti-inflammatory activity and effect on cell proliferation (cell proliferation): significant cell proliferative and anti-inflammatory activities
